Results published in BindingDB's records for doi:10.1080/14756360500112326 (National Institute of Pharmaceutical Education and Research, 2005).
pIC50: −log10 of the molar value.

Biological target: Xanthine dehydrogenase/oxidase (Homo sapiens, UniProt P47989)
Assay: Xanthine Oxidase Inhibition Assay
Method: Inhibition assay of the xanthine oxidase reaction by various purine based inhibitors was measured in terms of the decrease in uric acid formation at […].

Chain of Xanthine dehydrogenase/oxidase (P47989 whole entry): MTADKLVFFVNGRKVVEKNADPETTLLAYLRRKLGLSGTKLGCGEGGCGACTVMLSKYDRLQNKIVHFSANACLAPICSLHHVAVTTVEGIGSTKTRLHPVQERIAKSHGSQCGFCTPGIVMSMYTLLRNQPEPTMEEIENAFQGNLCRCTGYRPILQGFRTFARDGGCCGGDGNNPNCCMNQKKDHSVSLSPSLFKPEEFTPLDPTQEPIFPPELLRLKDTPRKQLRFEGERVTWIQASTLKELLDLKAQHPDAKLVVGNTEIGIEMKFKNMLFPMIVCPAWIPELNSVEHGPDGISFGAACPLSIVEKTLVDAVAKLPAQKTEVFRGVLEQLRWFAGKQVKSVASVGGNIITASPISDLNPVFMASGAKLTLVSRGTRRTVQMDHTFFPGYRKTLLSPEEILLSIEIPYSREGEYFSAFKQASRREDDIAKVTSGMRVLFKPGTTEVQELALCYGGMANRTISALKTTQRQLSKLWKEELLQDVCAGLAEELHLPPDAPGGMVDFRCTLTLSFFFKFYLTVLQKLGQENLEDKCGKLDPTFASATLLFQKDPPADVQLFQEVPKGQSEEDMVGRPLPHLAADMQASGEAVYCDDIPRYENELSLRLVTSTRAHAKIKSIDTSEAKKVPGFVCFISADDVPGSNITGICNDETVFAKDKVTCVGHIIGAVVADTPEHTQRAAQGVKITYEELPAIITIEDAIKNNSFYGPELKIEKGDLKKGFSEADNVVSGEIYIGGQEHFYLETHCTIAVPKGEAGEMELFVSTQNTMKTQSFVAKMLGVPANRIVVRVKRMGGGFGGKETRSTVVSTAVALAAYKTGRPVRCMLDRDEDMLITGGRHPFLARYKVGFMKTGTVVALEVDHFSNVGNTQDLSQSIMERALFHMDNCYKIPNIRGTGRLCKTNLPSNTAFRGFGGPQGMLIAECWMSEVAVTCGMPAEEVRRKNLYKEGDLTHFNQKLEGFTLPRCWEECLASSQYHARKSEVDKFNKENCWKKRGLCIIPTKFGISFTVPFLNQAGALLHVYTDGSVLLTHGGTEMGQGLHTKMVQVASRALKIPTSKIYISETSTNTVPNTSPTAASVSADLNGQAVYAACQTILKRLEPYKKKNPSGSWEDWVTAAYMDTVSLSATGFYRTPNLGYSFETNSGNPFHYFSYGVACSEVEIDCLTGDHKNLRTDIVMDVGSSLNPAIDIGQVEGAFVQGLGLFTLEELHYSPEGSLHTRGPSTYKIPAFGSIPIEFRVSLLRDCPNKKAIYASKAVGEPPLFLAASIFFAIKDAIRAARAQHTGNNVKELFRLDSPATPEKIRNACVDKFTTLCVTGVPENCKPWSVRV

Row | Structure (SMILES) | pIC50
1 | Nc1ncnc2nc[nH]c12 | 4.12
2 | O=C(Nc1ncnc2nc[nH]c12)c1ccccc1 [6-(N-benzoylamino)purine, 2] | 6.35
3 | O=c1[nH]c(=O)c2[nH]c(Br)nc2[nH]1 [8-Bromoxanthine, 3] | 3.40
